Key:
ZFP64 = assay: Gene expression in HT29 cancer cells (in vitro); format: cell-based, human; conditions: standardized to 0 h
Protocol: (§1) Hatched columns relate to blood, black columns relate to HepG2 cells, white boxes relate to HT 29 cells. Values are standardized to the value at 0 h.
(§2) Samples were obtained and gene expressions were determined with the methods as described herein below. The results are shown in below table 3 and FIGS. 2 and 3
(§3) The above values represent a mean value which was determined on the basis of 2 biological replicates, for each of which 3 technical replicates were prepared. […] The level of gene expression determined in peripheral blood samples can be correlated with a certain level of activity of HDAC in the diseased cells, e.g. by applying an appropriate conversion factor or conversion table, which may be determined for each specific disease, and/or patient group.
(§4) To determine RNA expression levels of ZFP64 in different cancer cell lines and PBMC, the cell membranes were chemically disrupted with a buffer containing guanidine isothiocycanate, which lyses the cells and supports the binding of RNA to a silica membrane and RNA was extracted via a filter-based spin column.
(§5) The High-Capacity cDNA Reverse Transcription Kit (Applied Biosystems) was used for reverse transcription of total RNA into single stranded cDNA with the aid of random hexamer primers according to the manufacturer's instructions. Briefly, for the reaction mix total RNA was mixed with random primers in excess, 4 mM dNTP Mix, 2.5 U/reaction, reverse transcriptase and nuclease free water. The reverse transcription took place in a thermal cycler under the following conditions: 25° C. for 10 min, 37° C. for 120 min, 85° C. for 5 min, followed by 4° C. for cooling down the reaction. The reverse transcription can be done in principle as well with other reverse transcriptases, primers and temperature protocols. Whenever possible, 250 ng total RNA were reverse transcribed if not available, lower amounts were used.
(§6) Custom TaqMan® Arrays (Applied Biosystems) in Format 16 were designed for the gene expression analysis of biomarkers of the present invention and housekeeping genes as outlined in table 4. These arrays allow for qPCR analysis of 8 samples per card. Of course, all reactions can be done as well by conventional qPCR analysis with specific primers.

TBP = assay: Gene expression in HT29 cancer cells (in vitro); format: cell-based, human; conditions: standardized to 0 h
Protocol: as §1, §2, §3, §4, §5, §6

18S = assay: Gene expression in HT29 cancer cells (in vitro); format: cell-based, human; conditions: standardized to 0 h
Protocol: as §1, §2, §3, §4, §5, §6

MICALL1 = assay: Gene expression in HT29 cancer cells (in vitro); format: cell-based, human; conditions: standardized to 0 h
Protocol: as §1, §2, §3, §4, §5, §6

HIST2H4A/B = assay: Gene expression in HT29 cancer cells (in vitro); format: cell-based, human; conditions: standardized to 0 h
Protocol: as §1, §2, §3, §4, §5, §6

DPP3 = assay: Gene expression in HT29 cancer cells (in vitro); format: cell-based, human; conditions: standardized to 0 h
Protocol: as §1, §2, §3, §4, §5, §6

KDELC2 = assay: Gene expression in HT29 cancer cells (in vitro); format: cell-based, human; conditions: standardized to 0 h
Protocol: as §1, §2, §3, §4, §5, §6

CCDC43 = assay: Gene expression in HT29 cancer cells (in vitro); format: cell-based, human; conditions: standardized to 0 h
Protocol: as §1, §2, §3, §4, §5, §6

GAPDH = assay: Gene expression in HT29 cancer cells (in vitro); format: cell-based, human; conditions: standardized to 0 h
Protocol: as §1, §2, §3, §4, §5, §6

HDAC = assay: Cellular HDAC enzyme activity in patients' whole blood (Boc-K(Ac)-AMC), inhibition vs pre-dose; format: in vivo, human; conditions: SAPHIRE
Protocol: Samples were obtained and gene expressions were determined with the methods as described herein below. Whole blood was incubated for 2 h at 37° C. with fluorescent HDAC substrate Boc-K(Ac)-AMC. After the lysis of erythrocytes remaining cells were stored at −80° C. HDAC activity was determined by fluorimetric analysis using a FLUOstar OPTIMA plate reader, where cells were incubated with a defined developer reagent (containing trypsin and lysis buffer) which leads to cell lysis and generation of a fluorophore from the deacetylated substrate. Finally inhibition of HDAC activity compared to pre-dose levels was calculated.
• Labelled 15 ml tubes (e.g. PP tubes, e.g. Falcon® tubes) • Labelled 2 ml tubes (e.g. PP tubes) • Erythrocyte Lysis buffer (Qiagen 79217) (stored at RT until use) • 40 mM Boc-K(Ac) AMC Stock in DMSO (Bachem: 1-1875) (stored at −80° C. until use)
• 1) Add 1 ml citrate blood into a 15 ml labelled tube. • 2) Add 5 μl 40 mM Boc-K(Ac) AMC to 1 ml citrate blood (final concentration: 200 μM Boc-K(Ac) AMC). • 3) Incubate for 2 h in an incubator (37° C.). • 4) Add 5 fold volume (5 ml) of 4° C. cold erythrocyte lysis buffer (EL buffer, Qiagen 79217). • 5) Mix briefly on a shaker. • 6) Incubate on ice for at least 15 min; mix two times in between on a plate shaker. • 7) Add 7 ml of 4° C. […]

[1] = Dose escalation 100-800 mg in cancer patients, dose-limiting toxicity; format: in vivo, human; conditions: highest dose group (800 mg); one patient within the first 3 patients
Protocol: HDAC enzyme activity, H4 Histone acetylation and gene expression of a group of genes were measured in the dose groups 100 mg, 200 mg, 400 mg, 600 mg and 800 mg. Each group consisted of 3 patients with different types of tumors. The highest dose group consisted of 6 patients due to a dose-limiting toxicity [DLT] […] The treatment cycles were as detailed for the SAPHIRE, SHELTER and SHORE clinical trials described herein below.

## CN(C)Cc1ccc(S(=O)(=O)n2ccc(/C=C/C(=O)NO)c2)cc1 [resminostat, (E)-3-(1-(4-((dimethylamino)methyl)phenylsulfonyl)-1H-pyrrol-3-yl)-N-hydroxyacrylamide]
ZFP64; 2 h
  Expression level, ZFP64: 0.58
ZFP64; 5 h
  Expression level, ZFP64: 0.25
TBP; 2 h
  Expression level, TBP (housekeeping gene): 1.15
TBP; 5 h
  Expression level, TBP (housekeeping gene): 1.13
18S; 2 h
  Expression level, 18s (housekeeping gene): 0.94
18S; 5 h
  Expression level, 18s (housekeeping gene): 0.91
MICALL1; 2 h
  Expression level, MICALL1: 0.81
MICALL1; 5 h
  Expression level, MICALL1: 0.42
HIST2H4A/B; 2 h
  Expression level, HIST2H4A/B: 0.96
HIST2H4A/B; 5 h
  Expression level, HIST2H4A/B: 0.88
DPP3; 2 h
  Expression level, DPP3: 0.87
DPP3; 5 h
  Expression level, DPP3: 0.72
KDELC2; 2 h
  Expression level, KDELC2: 0.79
KDELC2; 5 h
  Expression level, KDELC2: 0.35
CCDC43; 2 h
  Expression level, CCDC43: 0.82
CCDC43; 5 h
  Expression level, CCDC43: 0.53
GAPDH; 2 h
  Expression level, GAPDH (housekeeping gene): 0.93
GAPDH; 5 h
  Expression level, GAPDH (housekeeping gene): 0.97
HDAC; 2 h post-dose, both dose groups (600 mg, 800 mg), vs pre-dose
  Inhibition of HDAC enzyme activity (median): ≤ 93%
HDAC; day 8, 800 mg dose group, wide range of individual values
  Inhibition of HDAC enzyme activity: up to 41%
[1]
  Dose-limiting toxicity [DLT]: fatigue and nausea grade 3

From US20160215348A1, “GENE EXPRESSION BIOMARKERS AND THEIR USE FOR DIAGNOSTIC AND PROGNOSTIC APPLICATION IN PATIENTS POTENTIALLY IN NEED OF HDAC INHIBITOR TREATMENT” (4SC AG, priority 2013, published 2016)
